The values that follow come from patent publication US8981141B1, “I-and II-type crystals of L-A-glyceryl phosphoryl choline, and method for preparing same” (Hanseochem Co., Ltd., priority 2011, dated 2015).

A short description of this data set: Hygroscopicity test (water content change with time under 30% humidity). The class given is physicochemical. Particulars: for hygroscopicity (result in words): humidity condition of 30% for 10 hours; for water content after being left under humidity: humidity condition of 30%, after about 10 hours; for initial water content: raw material before exposure to humidity condition of 30%. As for the experimental part: In the figure, X axis indicates the elapse time and Y axis the water content.
In case of the polymorphic crystal, however, the initial water content was 2.9% but increased to 4.2% after 10 hours due to absorption moisture from air.

“Also recorded” adds a separate entry of the source.

Regarding `C[N+](C)(C)CCOP(=O)(O)OC[C@H](O)CO` [Type I crystal, L-alpha-glyceryl phosphoryl choline], the “hygroscopicity (result in words)” value is recorded as “very low hygroscopicity”, the “water content after being left under humidity” value (from here on “water content after being left”) was found to be 0.2% and the initial water content is 0.1%.

For `C[N+](C)(C)CCOP(=O)(O)OC[C@H](O)CO` [Type II crystal, L-alpha-glyceryl phosphoryl choline], the “hygroscopicity (result in words)” value is listed as “very low hygroscopicity”, the “water content after being left” value was found to be 6.5% and the initial water content is reported as 6.5%.

Take `C[N+](C)(C)CCOP(=O)(O)OC[C@H](O)CO` [polymorphic crystal, L-alpha-glyceryl phosphoryl choline, reference compound]: the “hygroscopicity (result in words)” value was “relatively very hygroscopic; also recorded: high hygroscopicity”, the “water content after being left” value amounted to 4.2% and the initial water content amounted to 2.9%.
